Assay results taken from patent US11053233B2, “Solid form of (S)-[2-chloro-4-fluoro-5-(7-morpholin-4-yl-quinazolin-4-yl)phenyl]-(6-methoxy-pyridazin-3-yl)-methanol” (Merck Patent GmbH, priority 2017, dated 2021).
Converted amounts (≈) assume the structure as drawn.

What was measured:
NCI-H460 = settings: 150 mg/kg oral plus IR 5 x 2 Gy
Description: (§1) The therapeutic relevance of DNA-PK inhibition by the drug substance as such was investigated in vivo in combination with ionizing radiation (IR), a clinically established DSB-inducing treatment. The drug substance was tested for activity in six xenograft mouse models of human cancer. The models were chosen from different cancer indications (colon, lung, head and neck, pancreatic), and histological subtypes (adeno, squamous, large cell). Ionizing radiation was administered using a fractionated schedule of 2 Gy per day administered over five consecutive days (total radiation dose=10 Gy). […] 10 min prior to each fraction of radiation (ONC397-1-2AZ, ONC397-1-3AZ, ONC397-1-4AZ, ONC397-1-5AZ, ONC397-1-8AZ).
(§2) The radiotherapy enhancing effect was quantified across the tested models by the time to reaching 400% initial volume for the 150 mg/kg study arms. The resulting Kaplan-Meier plots were compared by the log-rank test.

HCT116 = settings: 150 mg/kg oral plus IR 5 x 2 Gy
Description: as §1, §2

A549 = settings: 150 mg/kg oral plus IR 5 x 2 Gy
Description: as §1, §2

[1] = test system: DNA-PK autophosphorylation in cancer cell lines
[2] = target: DNA-dependent protein kinase (DNA-PK) (Homo sapiens, UniProt P78527); test: Inhibition of DNA-PK activity; assay type: biochemical
[3] = test system: xenograft mouse models of human cancer (colon, lung, head and neck, pancreatic); test: Combination with ionizing radiation in six xenograft mouse models of human cancer; assay type: in vivo; settings: oral, 10 min prior to each fraction; IR 2 Gy per day over five days (10 Gy); all models
Description: as §1, §2

[4] = Solubility measurements in biorelevant media (shake flask 24 h, HPLC); assay type: physicochemical
Description: Solubility measurements were carried out in accordance with the method described further below.
• Test media: • SGF (Simulated gastric fluid without pepsin) pH 1.2: • 2.0 g sodium chloride were placed in a 1 L volumetric flask and dissolved in around 500 mL water. 80 mL of 1 M hydrochloric acid solution were added and the volume made up to 1 L. • The resulting SGF solution contains: 34.2 mM sodium chloride • FaSSIF (Fasted State Simulated Intestinal Fluid) pH 6.5: • 0.224 g SIF powder (obtained from biorelevant.com) were dissolved in FaSSIF buffer in a 100 mL volumetric flask and made up to volume. The FaSSIF medium was allowed to equilibrate for 2 h at ambient room temperature and used within 48 h of preparation. FaSSIF buffer can be made up by dissolving 0.42 g NaOH pellets, 3.44 g of monobasic sodium phosphate anhydrous and 6.19 g sodium chloride in about 0.9 L of purified water, adjusting the pH to […] with 1 N NaOH or 1 N HCl and making up the volume to 1 L. • The resulting FaSSIF contains: 3 mM sodium taurocholate; 0.75 mM lecithin; 105.9 mM sodium chloride; 28.4 mM monobasic sodium phosphate and 8.7 mM sodium hydroxide. • FeSSIF (Fed State Simulated Intestinal Fluid) pH 5.0: • 1.12 g SIF powder (biorelevant.com) were dissolved in FeSSIF buffer in a 100 mL volumetric flask and made up to volume. It was used within 48 h of preparation. FeSSIF buffer can be made up by dissolving 4.04 g NaOH pellets, 8.65 g of glacial acetic acid and 11.87 g sodium chloride in about 0.9 L of purified water, adjusting the pH to […] with 1 N NaOH or 1 N HCl and making up the volume to 1 L. • The resulting FeSSIF contains: 15 mM sodium taurocholate; 3.75 mM lecithin; 203.2 mM sodium chloride; 101.0 mM sodium hydroxide and 144.1 mM acetic acid. • Solubility Measurements: • Excess amount of substance was weighed into Uniprep® Whatman vials, to which 1 mL of test medium were added. The suspension was shaken for 24 h at 450 rpm (rounds per minute) at 37° C. The pH was measured at 1 h, 6 h and 24 h and the vials were checked for undissolved compound. The pH of the medium was adjusted wherever necessary. After 24 h, the solutions were filtered through 0.2 μm PTFE membrane filter and the filtrates analysed using HPLC after suitable dilutions. • HPLC: • Apparatus: Agilent 1100 • Column: Chromolith® Performance RP-18e100-3 mm, Art. 1.52001 (h) • Wavelength: 282 nm • Injection volume: 5 μL • Column Oven: 37° C. • Auto sampler: 37° C. • Eluent A for HPLC: Formic Acid:Ultrapure water (1:999;v/v) • Eluent B for HPLC: Formic Acid+Acetonitrile (1:999;v/v) • HPLC-Gradient: […]

[5] = Long-term DS (drug substance) stability investigations; assay type: physicochemical; settings: up to 40° C./75% relative humidity

Compound: COc1ccc([C@@H](O)c2cc(-c3ncnc4cc(N5CCOCC5)ccc34)c(F)cc2Cl)nn1 [drug substance, (S)-[2-chloro-4-fluoro-5-(7-morpholin-4-yl-quinazolin-4-yl)phenyl]-(6-methoxy-pyridazin-3-yl)-methanol]
- Enhancement ratio (time to reaching 400% initial volume) (NCI-H460): 2.6
- Enhancement ratio (time to reaching 400% initial volume) (HCT116): 1.5
- Enhancement ratio (time to reaching 400% initial volume) (A549): 1.5
- Inhibition of DNA-PK autophosphorylation [1]: potent inhibition
- Inhibition of DNA-PK activity [2]: potent and selective inhibitor
- Enhancement of the radiation effect [3]: strong enhancement of the radiation effect

Compound: COc1ccc([C@@H](O)c2cc(-c3ncnc4cc(N5CCOCC5)ccc34)c(F)cc2Cl)nn1 [anhydrous disordered crystalline form, (S)-[2-chloro-4-fluoro-5-(7-morpholin-4-yl-quinazolin-4-yl)phenyl]-(6-methoxy-pyridazin-3-yl)-methanol]
- Solubility compared with the anhydrous ordered crystalline compound ([4]; at pH 1.2): more than double the solubility of the crystalline form
- solubility at 24 h ([4]; fasted state simulated intestinal fluid (FaSSIF), pH 6.5, thermodynamic from solid, FaSSIF, pH of medium 6.5, 37 °C): 10 ± 1 µg/mL (≈ 20.8 µM)
- solubility at 24 h ([4]; fed state simulated intestinal fluid (FeSSIF), pH 5, thermodynamic from solid, FeSSIF, pH of medium 5.0, 37 °C): 56 ± 2 µg/mL (≈ 116 µM)
- Solubility compared with the anhydrous ordered crystalline compound ([4]; general statement): significantly better
- solubility at 24 h ([4]; simulated gastric fluid without pepsin (SGF), pH 1.2, simulated gastric fluid, thermodynamic from solid, SGF, pH of medium 1.2, 37 °C): 2020 ± 67 µg/mL (≈ 4200 µM)
- Chemical and physical stability [5]: high chemical and physical stability
